Measured values from PubChem BioAssay (NCI).
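Five concentrations, 48 hours, 96-well plates. TGI: total growth inhibition.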

Legend:
Experiment in all cases: NCI anticancer screen, dose series, 48 h
LOX IMVI melanoma = tested on: LOX IMVI melanoma
M14 melanoma = tested on: M14 melanoma
SK-MEL-5 melanoma = tested on: SK-MEL-5 melanoma
RPMI-8226 leukemia = tested on: RPMI-8226 leukemia
SK-MEL-28 melanoma = tested on: SK-MEL-28 melanoma
UO-31 renal = tested on: UO-31 renal
HT29 colon = tested on: HT29 colon
UACC-257 melanoma = tested on: UACC-257 melanoma
OVCAR-8 ovarian = tested on: OVCAR-8 ovarian
NCI-H522 lung = tested on: NCI-H522 lung
NCI-H23 lung = tested on: NCI-H23 lung
HCT-15 colon = tested on: HCT-15 colon
HCT-116 colon = tested on: HCT-116 colon
RXF 393 renal = tested on: RXF 393 renal
ACHN renal = tested on: ACHN renal
SN12C renal = tested on: SN12C renal
HOP-92 NSCLC = tested on: HOP-92 NSCLC
SNB-75 CNS = tested on: SNB-75 CNS
BT-549 breast = tested on: BT-549 breast
MALME-3M melanoma = tested on: MALME-3M melanoma
OVCAR-4 ovarian = tested on: OVCAR-4 ovarian
NCI/ADR-RES ovarian = tested on: NCI/ADR-RES ovarian
IGROV1 ovarian = tested on: IGROV1 ovarian
SF-539 CNS = tested on: SF-539 CNS
T-47D breast = tested on: T-47D breast
PC-3 prostate = tested on: PC-3 prostate
NCI-H460 lung = tested on: NCI-H460 lung
TK-10 renal = tested on: TK-10 renal
A549 NSCLC = tested on: A549 NSCLC
MOLT-4 leukemia = tested on: MOLT-4 leukemia
U251 CNS = tested on: U251 CNS
786-0 renal = tested on: 786-0 renal
SK-MEL-2 melanoma = tested on: SK-MEL-2 melanoma
KM12 colon = tested on: KM12 colon
CCRF-CEM leukemia = tested on: CCRF-CEM leukemia
HL-60(TB) leukemia = tested on: HL-60(TB) leukemia
MDA-MB-231 breast = tested on: MDA-MB-231 breast
MDA-N = tested on: MDA-N
OVCAR-5 ovarian = tested on: OVCAR-5 ovarian
K-562 leukemia = tested on: K-562 leukemia
SNB-19 CNS = tested on: SNB-19 CNS
SF-268 CNS = tested on: SF-268 CNS
MCF7 breast = tested on: MCF7 breast
DU-145 prostate = tested on: DU-145 prostate
UACC-62 melanoma = tested on: UACC-62 melanoma
COLO 205 colon = tested on: COLO 205 colon
SW-620 colon = tested on: SW-620 colon
SR leukemia = tested on: SR leukemia
SF-295 CNS = tested on: SF-295 CNS
HOP-62 NSCLC = tested on: HOP-62 NSCLC
SK-OV-3 ovarian = tested on: SK-OV-3 ovarian
HS 578T breast = tested on: HS 578T breast
A498 renal = tested on: A498 renal
CAKI-1 renal = tested on: CAKI-1 renal
OVCAR-3 ovarian = tested on: OVCAR-3 ovarian
HCC-2998 colon = tested on: HCC-2998 colon
NCI-H226 lung = tested on: NCI-H226 lung
MDA-MB-435 = tested on: MDA-MB-435

Cc1ccc(S(=O)(=O)NC(=O)NC(CO)C(=O)O)cc1 (stereo not given)
TGI (LOX IMVI melanoma): > 100 µM
TGI (M14 melanoma): > 100 µM
TGI (SK-MEL-5 melanoma): > 100 µM
TGI (RPMI-8226 leukemia): > 100 µM
TGI (SK-MEL-28 melanoma): > 100 µM
TGI (UO-31 renal): > 100 µM
TGI (HT29 colon): > 100 µM
TGI (UACC-257 melanoma): > 100 µM
TGI (OVCAR-8 ovarian): > 100 µM
TGI (NCI-H522 lung): > 100 µM
TGI (NCI-H23 lung): > 100 µM
TGI (HCT-15 colon): > 100 µM
TGI (HCT-116 colon): > 100 µM
TGI (RXF 393 renal): > 100 µM
TGI (ACHN renal): > 100 µM
TGI (SN12C renal): > 100 µM
TGI (HOP-92 NSCLC): > 100 µM
TGI (SNB-75 CNS): > 100 µM
TGI (BT-549 breast): > 100 µM
TGI (MALME-3M melanoma): > 100 µM
TGI (OVCAR-4 ovarian): > 100 µM
TGI (NCI/ADR-RES ovarian): > 100 µM
TGI (IGROV1 ovarian): > 100 µM
TGI (SF-539 CNS): > 100 µM
TGI (T-47D breast): > 100 µM
TGI (PC-3 prostate): > 100 µM
TGI (NCI-H460 lung): > 100 µM
TGI (TK-10 renal): > 100 µM
TGI (A549 NSCLC): > 100 µM
TGI (MOLT-4 leukemia): > 100 µM
TGI (U251 CNS): > 100 µM
TGI (786-0 renal): > 100 µM
TGI (SK-MEL-2 melanoma): > 100 µM
TGI (KM12 colon): > 100 µM
TGI (CCRF-CEM leukemia): > 100 µM
TGI (HL-60(TB) leukemia): > 100 µM
TGI (MDA-MB-231 breast): > 100 µM
TGI (MDA-N): > 100 µM
TGI (OVCAR-5 ovarian): > 100 µM
TGI (K-562 leukemia): > 100 µM
TGI (SNB-19 CNS): > 100 µM
TGI (SF-268 CNS): > 100 µM
TGI (MCF7 breast): > 100 µM
TGI (DU-145 prostate): > 100 µM
TGI (UACC-62 melanoma): > 100 µM
TGI (COLO 205 colon): > 100 µM
TGI (SW-620 colon): > 100 µM
TGI (SR leukemia): > 100 µM
TGI (SF-295 CNS): > 100 µM
TGI (HOP-62 NSCLC): > 100 µM
TGI (SK-OV-3 ovarian): > 100 µM
TGI (HS 578T breast): > 100 µM

CC(=O)Oc1ccccc1[C@H]1CC(=O)C[C@H](c2ccccc2OC(C)=O)C12C(=O)c1ccccc1C2=O
TGI (A498 renal): > 100 µM
TGI (M14 melanoma): 70.9 µM
TGI (SK-MEL-5 melanoma): 48.7 µM
TGI (RPMI-8226 leukemia): > 100 µM
TGI (SK-MEL-28 melanoma): 51.2 µM
TGI (UO-31 renal): > 100 µM
TGI (CAKI-1 renal): > 100 µM
TGI (OVCAR-3 ovarian): 89.2 µM
TGI (HT29 colon): > 100 µM
TGI (OVCAR-8 ovarian): > 100 µM
TGI (NCI-H522 lung): 92.8 µM
TGI (NCI-H23 lung): 90.5 µM
TGI (HCT-15 colon): > 100 µM
TGI (HCT-116 colon): 88.9 µM
TGI (RXF 393 renal): 93.4 µM
TGI (SN12C renal): > 100 µM
TGI (HOP-92 NSCLC): > 100 µM
TGI (SNB-75 CNS): > 100 µM
TGI (BT-549 breast): 84.5 µM
TGI (MALME-3M melanoma): > 100 µM
TGI (OVCAR-4 ovarian): > 100 µM
TGI (NCI/ADR-RES ovarian): > 100 µM
TGI (IGROV1 ovarian): > 100 µM
TGI (T-47D breast): > 100 µM
TGI (HCC-2998 colon): 85.4 µM
TGI (PC-3 prostate): > 100 µM
TGI (NCI-H460 lung): 60.3 µM
TGI (MOLT-4 leukemia): > 100 µM
TGI (U251 CNS): > 100 µM
TGI (SK-MEL-2 melanoma): 66.2 µM
TGI (KM12 colon): > 100 µM
TGI (CCRF-CEM leukemia): > 100 µM
TGI (NCI-H226 lung): 74 µM
TGI (HL-60(TB) leukemia): > 100 µM
TGI (MDA-MB-231 breast): 94.6 µM
TGI (MDA-N): 47.3 µM
TGI (OVCAR-5 ovarian): > 100 µM
TGI (K-562 leukemia): 84 µM
TGI (MDA-MB-435): 31.6 µM
TGI (SNB-19 CNS): > 100 µM
TGI (DU-145 prostate): > 100 µM
TGI (UACC-62 melanoma): 30.9 µM
TGI (COLO 205 colon): 54.3 µM
TGI (SR leukemia): > 100 µM
TGI (SF-295 CNS): > 100 µM
TGI (HOP-62 NSCLC): > 100 µM
TGI (SK-OV-3 ovarian): > 100 µM
TGI (HS 578T breast): > 100 µM
